From PubChem BioAssay AID256 (DTP/NCI, 2004)
Several values for one entry are separate records, joined by “and”; a condition that tells them apart may be missing. Identical values can stand only once. Inconclusive results and toxic doses are left out.

Tested on: CD2F1 mice, L1210 leukemia ip, survival T/C
Assay: NCI In Vivo Anticancer Drug Screen. Data for tumor model L1210 Leukemia (intraperitoneal) in CD2F1 (CDF1) mice
Conditions: higher = longer survival
Summary of the method: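 Ratio T/C, where T is the treated-group value and C the vehicle-dosed control value, from mice implanted with a transplantable tumor.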

[1] = endpoint: mean survival time, dose: 75.0 mg/kg/injection, schedule: Q01DX001 (ip), vehicle: saline
[2] = endpoint: mean survival time, dose: 150.0 mg/kg/injection, schedule: Q01DX001 (ip), vehicle: saline
[3] = endpoint: mean survival time, dose: 100.0 mg/kg/injection, schedule: Q04DX003 (ip), vehicle: saline with Tween-80
[4] = endpoint: mean survival time, dose: 100.0 mg/kg/injection, schedule: Q04DX002 (ip), vehicle: saline with Tween-80
[5] = endpoint: mean survival time, dose: 100.0 mg/kg/injection, schedule: Q01DX001 (ip), vehicle: saline with Tween-80
[6] = endpoint: mean survival time, dose: 200.0 mg/kg/injection, schedule: Q01DX001 (ip), vehicle: saline with Tween-80
[7] = endpoint: mean survival time, dose: 400.0 mg/kg/injection, schedule: Q01DX001 (ip), vehicle: saline with Tween-80
[8] = endpoint: mean survival time, dose: 100.0 mg/kg/injection, schedule: Q04DX003 (ip), vehicle: saline
[9] = endpoint: mean survival time, dose: 200.0 mg/kg/injection, schedule: Q04DX003 (ip), vehicle: saline
[10] = endpoint: mean survival time, dose: 400.0 mg/kg/injection, schedule: Q04DX003 (ip), vehicle: saline
[11] = endpoint: mean survival time, dose: 200.0 mg/kg/injection, schedule: Q04DX003 (ip), vehicle: saline with Tween-80
[12] = endpoint: mean survival time, dose: 400.0 mg/kg/injection, schedule: Q04DX003 (ip), vehicle: saline with Tween-80
[13] = endpoint: mean survival time, dose: 50.0 mg/kg/injection, schedule: Q04DX002 (ip), vehicle: saline with Tween-80
[14] = endpoint: mean survival time, dose: 100.0 mg/kg/injection, schedule: Q01DX001 (ip), vehicle: saline
[15] = endpoint: mean survival time, dose: 200.0 mg/kg/injection, schedule: Q01DX001 (ip), vehicle: saline
[16] = endpoint: mean survival time, dose: 100.0 mg/kg/injection, schedule: Q01DX009 (ip), vehicle: saline with Tween-80
[17] = endpoint: mean survival time, dose: 200.0 mg/kg/injection, schedule: Q01DX009 (ip), vehicle: saline with Tween-80
[18] = endpoint: mean survival time, dose: 400.0 mg/kg/injection, schedule: Q01DX009 (ip), vehicle: saline with Tween-80

CO[C@H]1C[C@](C)(O)Cc2cc3c(c(O)c21)C(=O)c1c(O)cc2c(c1C3=O)O[C@@H]1O[C@@]2(C)[C@H](O)[C@@H](N(C)C)[C@@H]1O
T/C (endpoint: mean survival time, dose: 0.78 mg/kg/injection, schedule: Q01DX009 (ip), vehicle: other): 123 % of control and 112 % of control
T/C (endpoint: mean survival time, dose: 3.12 mg/kg/injection, schedule: Q01DX009 (ip), vehicle: other): 117 % of control
T/C (endpoint: mean survival time, dose: 3.13 mg/kg/injection, schedule: Q01DX009 (ip), vehicle: other): 151 % of control
T/C (endpoint: mean survival time, dose: 3.13 mg/kg/injection, schedule: Q01DX009 (oral), vehicle: other): 112 % of control
T/C (endpoint: mean survival time, dose: 3.13 mg/kg/injection, schedule: Q01DX009 (oral), vehicle: saline): 102 % of control
T/C (endpoint: mean survival time, dose: 6.25 mg/kg/injection, schedule: Q01DX009 (oral), vehicle: other): 116 % of control
T/C (endpoint: mean survival time, dose: 6.25 mg/kg/injection, schedule: Q01DX009 (oral), vehicle: saline): 116 % of control
T/C (endpoint: mean survival time, dose: 12.5 mg/kg/injection, schedule: Q01DX009 (oral), vehicle: other): 153 % of control
T/C (endpoint: mean survival time, dose: 25.0 mg/kg/injection, schedule: Q01DX009 (oral), vehicle: other): 208 % of control
T/C (endpoint: mean survival time, dose: 25.0 mg/kg/injection, schedule: Q01DX009 (oral), vehicle: saline): 183 % of control
T/C (endpoint: mean survival time, dose: 50.0 mg/kg/injection, schedule: Q01DX009 (oral), vehicle: other): 102 % of control
T/C (endpoint: mean survival time, dose: 50.0 mg/kg/injection, schedule: Q01DX009 (oral), vehicle: saline): 168 % of control
T/C (endpoint: median survival time, dose: 6.7 mg/kg/injection, schedule: Q01DX009 (ip), vehicle: other): 197 % of control and 225 % of control
T/C (endpoint: median survival time, dose: 10.0 mg/kg/injection, schedule: Q01DX009 (ip), vehicle: other): 208 % of control and 250 % of control
T/C (endpoint: median survival time, dose: 15.0 mg/kg/injection, schedule: Q01DX009 (ip), vehicle: other): 302 % of control and 332 % of control
T/C (endpoint: median survival time, dose: 22.5 mg/kg/injection, schedule: Q01DX009 (ip), vehicle: other): 152 % of control and 169 % of control

OCCCCSc1ccccc1
T/C (endpoint: mean survival time, dose: 75.0 mg/kg/injection, schedule: Q04DX003 (ip), vehicle: saline): 98 % of control
T/C (endpoint: mean survival time, dose: 150.0 mg/kg/injection, schedule: Q04DX003 (ip), vehicle: saline): 98 % of control
T/C (endpoint: mean survival time, dose: 300.0 mg/kg/injection, schedule: Q04DX003 (ip), vehicle: saline): 91 % of control

CN(C)C(=O)Nc1ccc(Cl)cc1
T/C (endpoint: median survival time, dose: 12.5 mg/kg/injection, schedule: Q01DX009 (ip), vehicle: saline): 100 % of control
T/C (endpoint: median survival time, dose: 25.0 mg/kg/injection, schedule: Q01DX009 (ip), vehicle: saline): 100 % of control
T/C (endpoint: median survival time, dose: 50.0 mg/kg/injection, schedule: Q01DX009 (ip), vehicle: saline): 103 % of control
T/C (endpoint: median survival time, dose: 100.0 mg/kg/injection, schedule: Q01DX009 (ip), vehicle: saline): 100 % of control
T/C (endpoint: median survival time, dose: 200.0 mg/kg/injection, schedule: Q01DX009 (ip), vehicle: saline): 101 % of control
T/C (endpoint: median survival time, dose: 400.0 mg/kg/injection, schedule: Q01DX009 (ip), vehicle: saline): 100 % of control

C=COC(=O)NC(CC(C)C)C(=O)O (stereo not drawn)
T/C [1]: 103 % of control
T/C [2]: 101 % of control

O=C(Cc1ccccc1)C(Br)C(Br)c1ccccc1 (stereo not drawn)
T/C (endpoint: mean survival time, dose: 25.0 mg/kg/injection, schedule: Q01DX009 (ip), vehicle: saline with Tween-80): 107 % of control
T/C [3]: 92 % of control

CCOC(=O)CC/C=C\Cc1c(OC)c(C)c2c(c1OC(=O)Nc1ccc(C(C)=O)cc1)C(=O)OC2
T/C [4]: 121 % of control

CCOC(=O)/C=C/c1cccc([N+](=O)[O-])c1
T/C [5]: 101 % of control
T/C [6]: 101 % of control
T/C [7]: 108 % of control

CC(C)C([N+](C)(C)C)P(=O)([O-])O (stereo not drawn)
T/C [8]: 101 % of control
T/C [9]: 96 % of control
T/C [10]: 101 % of control

CSc1n[nH]c(N)n1
T/C [3]: 94 % of control
T/C [11]: 94 % of control
T/C [12]: 90 % of control

CO[C@@]12[C@@H]3N[C@@H]3CN1C1=C(C(=O)C(NCc3ccco3)=C(C)C1=O)[C@@H]2COC(N)=O
T/C (endpoint: mean survival time, dose: 1.5 mg/kg/injection, schedule: Q01DX001 (ip), vehicle: distilled water + Tween-80): 113 % of control
T/C (endpoint: mean survival time, dose: 3.0 mg/kg/injection, schedule: Q01DX001 (ip), vehicle: distilled water + Tween-80): 120 % of control
T/C (endpoint: mean survival time, dose: 24.0 mg/kg/injection, schedule: Q01DX001 (ip), vehicle: distilled water + Tween-80): 156 % of control
T/C (endpoint: mean survival time, dose: 36.0 mg/kg/injection, schedule: Q01DX001 (ip), vehicle: distilled water + Tween-80): 108 % of control

CC(=O)CC(=O)Nc1nccs1
T/C (endpoint: mean survival time, dose: 25.0 mg/kg/injection, schedule: Q04DX002 (ip), vehicle: saline with Tween-80): 110 % of control
T/C [13]: 107 % of control
T/C [4]: 93 % of control

Cc1nc2ccccn2c(=O)c1Br
T/C (endpoint: mean survival time, dose: 50.0 mg/kg/injection, schedule: Q01DX001 (ip), vehicle: saline): 104 % of control
T/C [14]: 104 % of control
T/C [15]: 104 % of control

O=C([O][Sb]([O]C(=O)C(F)(F)F)([c]1ccccc1)([c]1ccccc1)[c]1ccccc1)C(F)(F)F
T/C [13]: 93 % of control
T/C [4]: 93 % of control
T/C (endpoint: mean survival time, dose: 200.0 mg/kg/injection, schedule: Q04DX002 (ip), vehicle: saline with Tween-80): 97 % of control

O=c1cn[nH]c2c(Br)cc(Br)cc12
T/C [3]: 103 % of control
T/C [11]: 97 % of control
T/C [12]: 97 % of control

O=C(OCc1ccccc1)c1cc([N+](=O)[O-])c(Cl)c([N+](=O)[O-])c1
T/C [5]: 101 % of control
T/C [16]: 97 % of control
T/C [6]: 97 % of control
T/C [17]: 98 % of control
T/C [7]: 98 % of control

O=C(O)c1cc2ccccc2s1
T/C [14]: 98 % of control
T/C [15]: 96 % of control
T/C (endpoint: mean survival time, dose: 400.0 mg/kg/injection, schedule: Q01DX001 (ip), vehicle: saline): 92 % of control

CN(C)CCCNc1c2ccccc2nc2cccc([N+](=O)[O-])c12
T/C (endpoint: mean survival time, dose: 0.2 mg/kg/injection, schedule: Q04DX002 (ip), vehicle: saline + alcohol): 103 % of control
T/C (endpoint: mean survival time, dose: 0.4 mg/kg/injection, schedule: Q04DX002 (ip), vehicle: saline + alcohol): 103 % of control
T/C (endpoint: mean survival time, dose: 0.8 mg/kg/injection, schedule: Q04DX002 (ip), vehicle: saline + alcohol): 100 % of control

Cc1ccc(O)c2ncccc12
T/C [16]: 114 % of control
T/C [17]: 97 % of control
T/C [18]: 103 % of control

CC(C)(CO)NC(=O)CCO
T/C (endpoint: mean survival time, dose: 100.0 mg/kg/injection, schedule: Q01DX009 (ip), vehicle: saline): 101 % of control
T/C [8]: 97 % of control
T/C (endpoint: mean survival time, dose: 200.0 mg/kg/injection, schedule: Q01DX009 (ip), vehicle: saline): 103 % of control
T/C [9]: 98 % of control
T/C (endpoint: mean survival time, dose: 400.0 mg/kg/injection, schedule: Q01DX009 (ip), vehicle: saline): 104 % of control
T/C [10]: 101 % of control

Cc1ccc([N+](=O)[O-])c2ccccc12
T/C [16]: 91 % of control
T/C [3]: 88 % of control
T/C [17]: 91 % of control
T/C [11]: 90 % of control
T/C [18]: 95 % of control
T/C [12]: 94 % of control

Nc1ncnc2nc(C(O)C(O)C(O)CO)[nH]c12 (stereo not drawn)
T/C (endpoint: median survival time, dose: 12.5 mg/kg/injection, schedule: Q01DX005 (ip), vehicle: distilled water + Tween-80): 102 % of control
T/C (endpoint: median survival time, dose: 25.0 mg/kg/injection, schedule: Q01DX005 (ip), vehicle: distilled water + Tween-80): 96 % of control
T/C (endpoint: median survival time, dose: 50.0 mg/kg/injection, schedule: Q01DX005 (ip), vehicle: distilled water + Tween-80): 98 % of control
T/C (endpoint: median survival time, dose: 100.0 mg/kg/injection, schedule: Q01DX005 (ip), vehicle: distilled water + Tween-80): 98 % of control
T/C (endpoint: median survival time, dose: 200.0 mg/kg/injection, schedule: Q01DX005 (ip), vehicle: distilled water + Tween-80): 106 % of control

CN(C)N=Nc1c(Cl)cccc1Cl
T/C (endpoint: mean survival time, dose: 9.38 mg/kg/injection, schedule: Q01DX009 (ip), vehicle: Klucel (hydroxypropylcellulose) (HPC)): 101 % of control
T/C (endpoint: mean survival time, dose: 18.75 mg/kg/injection, schedule: Q01DX009 (ip), vehicle: Klucel (hydroxypropylcellulose) (HPC)): 95 % of control and 103 % of control
T/C (endpoint: mean survival time, dose: 37.5 mg/kg/injection, schedule: Q01DX009 (ip), vehicle: Klucel (hydroxypropylcellulose) (HPC)): 97 % of control and 110 % of control
T/C (endpoint: mean survival time, dose: 300.0 mg/kg/injection, schedule: Q01DX009 (ip), vehicle: Klucel (hydroxypropylcellulose) (HPC)): 89 % of control

COc1ccc2c(c1O)CNCC2c1ccc(O)c(O)c1 (stereo not drawn)
T/C [1]: 106 % of control
T/C [2]: 106 % of control
T/C (endpoint: mean survival time, dose: 300.0 mg/kg/injection, schedule: Q01DX001 (ip), vehicle: saline): 108 % of control
